# Experimental data reported in patent US8354414B2, “Substituted bicyclic pyrimidines” (Cephalon, Inc, priority 2006, dated 2013).
# Structures can show the parent of a compound that is named as a salt. Where two headings read alike, the source gives them in different places.
# Experiments:
# CDK5/GST-p25 = molecular target: T1, CDK5/GST-p25 (Homo sapiens, UniProt Q00535); experiment: Inhibition of CDK5/GST-p25 kinase activity (ELISA with time-resolved fluorescence readout); format: biochemical
# T1 construct: The final construct, encoding for full-length human CDK5; made in house; host or cells: Sf21 insect cells (baculovirus co-infection)
# Protocol: Two recombinant baculoviral constructs were created, one encoding for human CDK5 and the other encoding for human p25 with an amino-terminal glutathione-S-transferase (GST) tag. PCR amplification of full-length CDK5 was performed utilizing human brain cDNA as a template and Pfu Turbo polymerase (Strategene). The PCR product from this reaction was subcloned into the baculoviral expression vector pFASTBAC1 (Gibco/BRL). The final construct, encoding for full-length human CDK5 (base pairs 25-903 of GenBank Accession #NM_004935), is 292 amino acids long with a predicted MW of 33.3 kDa.
# For p25, the active truncated form of p35, amino acids 108-307 were PCR-amplified from human fetal brain cDNA (Clontech QUICK-Clone cDNA) using the Advantage 2 PCR system (Clontech). The PCR product was subcloned into the baculoviral transfer vector pFBGSTP (an engineered derivative of the baculoviral transfer vector pFASTBAC1). The final baculoviral construct encodes for base pairs 419-1021 of GenBank Accession #NM_003885, with an amino-terminal GST tag. The expressed GST-p25 is 444 amino acids long with a predicted MW of 50.3 kDa.
# The CDK5/GST-p25 complex was generated by coexpression. Sf21 cells were cultured in TNM-FHS media at a density of 1.5×10^6 cells/mL and infected with each recombinant virus at MOI values of 5 (for CDK5) and 10 (for GST-p25). The cells were harvested 40 h after infection. For purification, the 100,000×g supernatant solution was used. Expression was confirmed by running samples on SDS-PAGE, followed by immunoblot analysis utilizing antibodies against CDK5 (anti-CDK5 (268-283); Calbiochem #219449) and p35 (Santa Cruz #sc820). The CDK5/GST-p25 complex was purified by glutathione affinity chromatography.
# Compounds were tested for their ability to inhibit the kinase activity of recombinant baculoviral CDK5/GST-p25 using an enzyme-linked immunosorbent assay (ELISA) with time-resolved fluorescence (TRF) readout. Briefly, each 384-well FluoroNunc Maxisorp plate (Cat # 460372) plate was coated with 50 μl/well of 50 μg/ml substrate solution (recombinant GST-Rb(773-928)) in Tris-buffered saline (TBS). The CDK5/GST-p25 assay mixture (total volume=50 μl/well) consisting of 20 mM HEPES (pH 7.2), 10 μM ATP, 10 mM MgCl2, 5 mM EGTA, 25 mM β-glycerophosphate, 0.05% BSA, 2.5% DMSO, and various concentrations of test compound were then added to the assay plate. Enzyme (2 ng/ml CDK5/GST-p25) was added and the reaction was allowed to proceed at 37° C. for 20 minutes. Detection of the phosphorylated product was performed by adding 50 μl/well of phospho-Rb (Ser-780) antibody (Cell Signaling # 9307) diluted 1:10,000 in antibody dilution buffer (0.1% BSA in TBST). After 1-hour incubation at 37° C., 50 μl/well of Eu-Nl labelled anti-rabbit antibody (Wallac # AD0105; 1:50,000 in antibody dilution buffer) was added. Incubation at 37° C. then proceeded for 1 hour, followed by addition of 50 μl enhancement solution (Wallac #1244-105). The plate was gently agitated and after a few minutes, the fluorescence of the resulting solution was measured using a Multilabel Reader (Victor2 Model # 1420-018 or Envision Model # 2100). Inhibition data were analyzed using ActivityBase and IC50 curves were generated using XLFit 3.0.5.
# His6-GSK-3β = molecular target: T2, His6-GSK-3β (Homo sapiens, UniProt P49841); experiment: Inhibition of His6-GSK-3β kinase activity (ELISA-based format, time-resolved fluorescence readout); format: biochemical; settings: read-out: GSK3β IC50
# T2 construct: made in house; host or cells: Sf21 insect cells (baculovirus)
# Text: Full-length GSK-3β was amplified from a sequence-verified I.M.A.G.E. EST acquired from Research Genetics (Invitrogen, Clone ID# CSODB003YJ02). The final sequence-verified cDNA contained the coding region for a NH2-terminal tag, which encoded for 6 histidines and then eight vector-encoded amino acids prior to the start of GSK3β, which contained by # 43-1342 of Genbank Accession # NM_002093, encoding amino acids #2-419. The predicted molecular weight of the tagged, 435 amino acid, full-length protein is 48.5 kDa. The major structural element of this protein is the kinase domain, which is from amino acids #56-340. Recombinant baculoviral DNA was prepared by transposition in E. coli (BAC-TO-BAC system: Invitrogen) and the virus generated and amplified in Sf21 insect cells. A suspension culture of Sf21 cells was infected at an MOI of 0.7 and cell density of 1.5×10^6 cells/mL in Excell 420 serum-free media (JRH BioScience) and harvested 65 h after infection. The 100,000×g supernatant solution was used for purification. Expression was confirmed by running samples on SDS-PAGE, followed by immunoblot analysis utilizing both a Penta-HIS antibody (Qiagen #34660) and a GSK-3α/GSK-3β antibody (Calbiochem #368662, data not shown). The His6-tagged protein was purified to in one step by Ni-NTA affinity chromatography.
# Inhibitory effects of compounds on baculoviral GSK-3β kinase activity were evaluated using an ELISA-based format in a 384-well FluoroNunc Maxisorp plate (Cat # 460372) with a time-resolved fluorescence readout. Briefly, each plate was coated with 50 μl/well of 20 μg/ml substrate solution (recombinant GST-Rb) in Tris-buffered saline (TBS). The GSK-3β assay mixture (total volume=50 μl/well) consisting of 50 mM HEPES (pH 7.2), 20 μM ATP, 10 mM MgCl2, 5 mM EGTA, 25 mM β-glycerophosphate, 0.05% BSA, 2.5% DMSO, and various concentrations of test compound were then added to the assay plate. Enzyme (200 ng/ml His6-GSK-3β) was then added and the reaction was allowed to proceed at 37° C. for 30 minutes. Detection of the phosphorylated product was performed by adding 50 μl/well of phospho-Rb (Ser-780) antibody (Cell Signaling # 9307) diluted 1:10,000 in antibody dilution buffer (0.1% BSA in TBST). After 1-hour incubation at 37° C., 50 μl/well of Eu-N1 labelled anti-rabbit antibody (Wallac # AD0105; 1:50,000 in antibody dilution buffer) was added. Incubation at 37° C. then proceeded for 1 hour, followed by addition of 50 μl enhancement solution (Wallac #1244-105). The plate was gently agitated and after a few minutes, the fluorescence of the resulting solution was measured using a Multilabel Reader (Victor2 Model # 1420-018 or Envision Model 2100). Inhibition data were analyzed using ActivityBase and IC50 curves were generated using XLFit 3.0.5.
# T2 sequence (P49841 2-419): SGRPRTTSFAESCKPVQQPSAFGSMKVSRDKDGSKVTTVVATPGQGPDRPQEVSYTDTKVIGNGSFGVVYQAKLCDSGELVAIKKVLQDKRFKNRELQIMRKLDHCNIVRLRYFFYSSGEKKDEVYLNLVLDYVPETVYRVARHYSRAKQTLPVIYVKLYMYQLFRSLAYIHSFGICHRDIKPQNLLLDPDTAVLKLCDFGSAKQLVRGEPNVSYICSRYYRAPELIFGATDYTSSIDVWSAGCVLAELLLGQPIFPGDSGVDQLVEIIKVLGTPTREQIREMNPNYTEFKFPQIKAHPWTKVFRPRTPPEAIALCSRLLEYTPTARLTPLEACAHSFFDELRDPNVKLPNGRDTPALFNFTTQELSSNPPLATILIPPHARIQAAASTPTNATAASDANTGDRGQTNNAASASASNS
# T1 sequence (Q00535 whole entry): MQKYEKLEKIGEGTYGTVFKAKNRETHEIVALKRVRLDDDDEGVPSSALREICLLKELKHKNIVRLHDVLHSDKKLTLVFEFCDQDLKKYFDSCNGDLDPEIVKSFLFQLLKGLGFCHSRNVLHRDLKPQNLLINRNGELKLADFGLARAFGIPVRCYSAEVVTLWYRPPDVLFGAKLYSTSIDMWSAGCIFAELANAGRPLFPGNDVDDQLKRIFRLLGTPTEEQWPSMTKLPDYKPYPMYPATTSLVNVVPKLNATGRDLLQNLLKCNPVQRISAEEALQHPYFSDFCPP
# T1 sequence (Q15078 108-307 partner limits assumed): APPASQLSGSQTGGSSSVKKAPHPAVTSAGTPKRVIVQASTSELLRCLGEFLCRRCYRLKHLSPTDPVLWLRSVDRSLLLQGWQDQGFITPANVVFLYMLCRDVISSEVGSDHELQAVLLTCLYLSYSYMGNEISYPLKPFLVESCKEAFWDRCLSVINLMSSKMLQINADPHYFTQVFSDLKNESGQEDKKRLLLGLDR
SMILES,IC50 (CDK5/GST-p25; class symbols) [µM],IC50 (His6-GSK-3β; class symbols) [µM],IC50 (His6-GSK-3β; numeric bounds) [µM],IC50 (CDK5/GST-p25; numeric bounds) [µM]
"CCCn1cc2c(C3C(=O)Nc4ccc(Br)cc43)nc(NC[C@@H](O)CO)nc2n1 (stereo partly drawn) [Example 368, 5-Bromo-3-[6-((R)-2,3-dihydroxy-propylamino)-2-propyl-2H-pyrazolo[3,4-d]pyrimidin-4-yl]-1,3-dihydro-indol-2-one]",< 0.3,< 0.3,–,–
"CN1CCN(c2ccc(Nc3nc(C4C(=O)Nc5ccc(C#N)cc54)c4cn(C5CCCC5)nc4n3)cn2)CC1 (centres unmarked) [Example 137, 3-{2-cyclopentyl-6-[6-(4-methyl-piperazin-1-yl)-pyridin-3-yl-amino]-2H-pyrazolo [3,4-d]pyrimidin-4-yl}-2-oxo-2,3-dihydro-1H-indole-5-carbonitrile]",> 10,< 0.3,–,–
"CN(C)CCCNc1nc2c(c(C3C(=O)Nc4ccc(C#N)cc43)n1)CCC2 (centres unmarked) [Example 342, 3-[2-(3-Dimethylamino-propylamino)-6,7-dihydro-5H-cyclopentapyrimidin-4-yl]-2-oxo-2,3-dihydro-1H-indole-5-carbonitrile]",0.3 to 3,0.3 to 3,–,–
"O=C1Nc2ccc(Br)cc2C1c1nc(NCc2cccnc2)nc2c1CCC2 (centres unmarked) [Example 337, 5-Bromo-3-{2-[(pyridin-3-ylmethyl)-amino]-6,7-dihydro-5H-cyclopentapyrimidin-4-yl}-1,3-dihydro-indol-2-one]",0.3 to 3,0.3 to 3,–,–
"CCCOCCNc1nc2c(c(C3C(=O)Nc4ccc(C#N)cc43)n1)CCC2 (centres unmarked) [Example 343, 2-Oxo-3-[2-(2-propoxy-ethylamino)-6,7-dihydro-5H-cyclopentapyrimidin-4-yl]-2,3-dihydro-1H-indole-5-carbonitrile]",> 10,> 10,–,–
"O=C1Nc2ccc(Br)cc2C1c1nc(NCc2ccncc2)nc2c1CCC2 (centres unmarked) [Example 336, 5-Bromo-3-{2-[(pyridin-4-ylmethyl)-amino]-6,7-dihydro-5H-cyclopentapyrimidin-4-yl}-1,3-dihydro-indol-2-one]",> 10,–,> 3,–
"COc1ccc2c(c1)C(c1ncnc3nn(C4CCCCC4)cc13)C(=O)N2 (centres unmarked) [Example 52, 3-(2-Cyclohexyl-2H-pyrazolo[3,4-d]pyrimidin-4-yl)-5-methoxy-1,3-dihydro-indol-2-one]",0.3 to 3,0.3 to 3,–,–
"CCOCCn1cc2c(C3C(=O)Nc4ccc(Cl)cc43)nc(NCc3cccnc3)nc2n1 (centres unmarked) [Example 213, 5-Chloro-3-{2-(2-ethoxy-ethyl)-6[(pyridin-3-ylmethyl)-amino]-2H-pyrazolo[3,4-d]pyrimidin-4-yl}-1,3-dihydro-indol-2-one]",< 0.3,< 0.3,–,–
CCCn1cc2c(C3C(=O)Nc4ccc(Br)cc43)nc(N[C@H]3CCNC3)nc2n1 (some centres unmarked) [Example 362],–,0.3 to 3,–,> 3
"CNCCCNc1nc(C2C(=O)Nc3ccc(C(F)(F)F)cc32)c2cn(C3CCCC3)nc2n1 (centres unmarked) [Example 253, 3-[2-Cyclopentyl-6-(3-methylamino-propylamino)-2H-pyrazolo [3,4-d]pyrimidin-4-yl]-5-trifluoromethyl-1,3-dihydro-indol-2-one hydrochloride salt]",0.3 to 3,< 0.3,–,–
"O=C1Nc2ccc(Br)cc2C1c1nc(NCc2ccccn2)nc2c1CCC2 (centres unmarked) [Example 339, 5-Bromo-3-{2-[(pyridin-2-ylmethyl)-amino]-6,7-dihydro-5H-cyclopentapyrimidin-4-yl}-1,3-dihydro-indol-2-one]",> 10,> 10,–,–
"CCOCCn1cc2c(C3C(=O)Nc4ccc(Cl)cc43)nc(NCCCNC)nc2n1 (centres unmarked) [Example 215, 5-Chloro-3-[2-(2-ethoxy-ethyl)-6-(3-methylamino-propylamino)-2H-pyrazolo [3,4-d]pyrimidin-4-yl]-1,3-dihydro-indol-2-one]",0.3 to 3,0.3 to 3,–,–
"N#Cc1ccc2c(c1)C(c1nc(NCCN3CCOCC3)nc3nn(C4CCCC4)cc13)C(=O)N2 (centres unmarked) [Example 177, 3-[2-Cyclopentyl-6-(2-morpholin-4-yl-ethylamino)-2H-pyrazolo[3,4-d]pyrimidin-4-yl]-2-oxo-2,3-dihydro-1H-indole-5-carbonitrile]",< 0.3,< 0.3,–,–
